Laboratory results taken from patent publication US12479847B2 (DANA-FARBER CANCER INSTITUTE, INC., priority 2019, dated 2025).

Columns and labels:
Assay in all cases: KINOMEscan (ScanMAX) kinase profiling
Assay type in all cases: binding
panel of 468 kinases [1] = biological target: T1, panel of 468 kinases (Homo sapiens, UniProt P51955); settings: NEK2; 1 μM; read-out: % control
T1 construct: purchased KINOMEscan (ScanMAX) service
T1 sequence (P51955 1-445): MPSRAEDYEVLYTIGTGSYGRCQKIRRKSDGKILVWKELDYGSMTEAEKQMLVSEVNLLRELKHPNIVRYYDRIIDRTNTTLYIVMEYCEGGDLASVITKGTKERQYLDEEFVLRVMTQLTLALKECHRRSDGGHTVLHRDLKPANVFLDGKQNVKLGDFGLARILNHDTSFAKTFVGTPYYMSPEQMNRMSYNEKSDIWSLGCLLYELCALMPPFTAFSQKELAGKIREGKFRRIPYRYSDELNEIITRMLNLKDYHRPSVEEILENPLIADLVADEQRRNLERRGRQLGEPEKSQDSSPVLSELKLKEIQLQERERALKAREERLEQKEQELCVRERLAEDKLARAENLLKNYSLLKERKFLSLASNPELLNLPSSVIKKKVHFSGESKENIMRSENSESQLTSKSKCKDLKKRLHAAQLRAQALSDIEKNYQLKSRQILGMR

panel of 468 kinases [2] = biological target: T2, panel of 468 kinases (Homo sapiens, UniProt Q6ZWH5); settings: NEK10; 1 μM; read-out: % control
T2 construct: purchased KINOMEscan (ScanMAX) service
T2 sequence (Q6ZWH5 1-1172): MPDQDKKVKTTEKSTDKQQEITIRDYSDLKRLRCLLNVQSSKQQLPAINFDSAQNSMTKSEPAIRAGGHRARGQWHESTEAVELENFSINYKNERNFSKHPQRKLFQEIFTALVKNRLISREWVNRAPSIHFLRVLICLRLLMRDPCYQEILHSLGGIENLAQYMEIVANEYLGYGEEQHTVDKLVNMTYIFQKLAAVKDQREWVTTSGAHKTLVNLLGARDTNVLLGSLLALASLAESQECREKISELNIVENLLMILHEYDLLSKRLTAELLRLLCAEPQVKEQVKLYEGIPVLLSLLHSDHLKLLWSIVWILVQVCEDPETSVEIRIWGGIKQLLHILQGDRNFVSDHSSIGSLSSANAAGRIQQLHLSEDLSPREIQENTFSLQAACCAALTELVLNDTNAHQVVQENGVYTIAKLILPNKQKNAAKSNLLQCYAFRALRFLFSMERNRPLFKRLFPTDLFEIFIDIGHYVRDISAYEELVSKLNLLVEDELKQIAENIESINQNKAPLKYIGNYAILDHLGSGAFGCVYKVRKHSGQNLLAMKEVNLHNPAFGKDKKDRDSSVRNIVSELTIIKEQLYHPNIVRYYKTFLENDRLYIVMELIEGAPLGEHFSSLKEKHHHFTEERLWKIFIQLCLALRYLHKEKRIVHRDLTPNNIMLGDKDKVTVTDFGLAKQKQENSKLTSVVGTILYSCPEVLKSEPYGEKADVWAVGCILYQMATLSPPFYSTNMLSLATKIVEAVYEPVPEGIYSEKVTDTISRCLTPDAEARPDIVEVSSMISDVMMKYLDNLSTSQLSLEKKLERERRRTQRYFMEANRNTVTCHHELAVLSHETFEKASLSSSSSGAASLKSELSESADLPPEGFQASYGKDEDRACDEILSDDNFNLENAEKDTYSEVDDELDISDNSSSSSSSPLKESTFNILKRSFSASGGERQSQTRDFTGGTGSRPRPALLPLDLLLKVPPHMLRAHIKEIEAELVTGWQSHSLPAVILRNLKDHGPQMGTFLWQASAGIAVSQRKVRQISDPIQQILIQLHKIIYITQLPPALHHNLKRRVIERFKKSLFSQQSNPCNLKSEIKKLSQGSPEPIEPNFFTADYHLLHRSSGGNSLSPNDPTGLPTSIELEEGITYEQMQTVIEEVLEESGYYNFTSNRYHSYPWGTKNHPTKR

panel of 468 kinases [3] = biological target: T3, panel of 468 kinases (Homo sapiens, UniProt P00533, L858R/T790M); settings: EGFR(L858R,T790M); 1 μM; read-out: % control
T3 construct: purchased KINOMEscan (ScanMAX) service

panel of 468 kinases [4] = biological target: T4, panel of 468 kinases (Homo sapiens, UniProt P23443); settings: S6K1; 1 μM; read-out: % control
T4 construct: purchased KINOMEscan (ScanMAX) service

panel of 468 kinases [5] = biological target: T5, panel of 468 kinases (Homo sapiens, UniProt Q99558); settings: NIK; 1 μM; read-out: % control
T5 construct: purchased KINOMEscan (ScanMAX) service

panel of 468 kinases [6] = biological target: T6, panel of 468 kinases (Homo sapiens, UniProt Q8NG66); settings: NEK11; 1 μM; read-out: % control
T6 construct: purchased KINOMEscan (ScanMAX) service
T6 sequence (Q8NG66 1-645): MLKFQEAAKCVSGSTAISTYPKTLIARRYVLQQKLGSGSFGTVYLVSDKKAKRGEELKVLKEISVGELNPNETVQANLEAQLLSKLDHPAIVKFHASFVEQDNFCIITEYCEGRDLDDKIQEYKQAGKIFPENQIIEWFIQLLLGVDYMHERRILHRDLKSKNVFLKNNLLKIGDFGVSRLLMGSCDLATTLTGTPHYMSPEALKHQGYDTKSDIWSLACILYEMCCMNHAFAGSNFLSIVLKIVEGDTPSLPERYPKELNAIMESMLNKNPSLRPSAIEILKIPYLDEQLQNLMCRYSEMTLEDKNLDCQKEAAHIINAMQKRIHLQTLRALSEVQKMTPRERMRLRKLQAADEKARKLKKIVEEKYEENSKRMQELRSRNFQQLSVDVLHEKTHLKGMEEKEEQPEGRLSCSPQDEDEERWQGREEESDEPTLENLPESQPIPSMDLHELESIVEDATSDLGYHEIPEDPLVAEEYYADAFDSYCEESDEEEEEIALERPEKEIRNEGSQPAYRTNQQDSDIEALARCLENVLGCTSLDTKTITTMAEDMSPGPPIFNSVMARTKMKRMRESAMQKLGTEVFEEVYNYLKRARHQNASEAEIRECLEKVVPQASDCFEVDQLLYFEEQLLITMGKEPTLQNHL

panel of 468 kinases [7] = biological target: T7, panel of 468 kinases (Homo sapiens, UniProt Q15303); settings: ERBB4; 1 μM; read-out: % control
T7 construct: purchased KINOMEscan (ScanMAX) service
T7 sequence (Q15303 26-1308): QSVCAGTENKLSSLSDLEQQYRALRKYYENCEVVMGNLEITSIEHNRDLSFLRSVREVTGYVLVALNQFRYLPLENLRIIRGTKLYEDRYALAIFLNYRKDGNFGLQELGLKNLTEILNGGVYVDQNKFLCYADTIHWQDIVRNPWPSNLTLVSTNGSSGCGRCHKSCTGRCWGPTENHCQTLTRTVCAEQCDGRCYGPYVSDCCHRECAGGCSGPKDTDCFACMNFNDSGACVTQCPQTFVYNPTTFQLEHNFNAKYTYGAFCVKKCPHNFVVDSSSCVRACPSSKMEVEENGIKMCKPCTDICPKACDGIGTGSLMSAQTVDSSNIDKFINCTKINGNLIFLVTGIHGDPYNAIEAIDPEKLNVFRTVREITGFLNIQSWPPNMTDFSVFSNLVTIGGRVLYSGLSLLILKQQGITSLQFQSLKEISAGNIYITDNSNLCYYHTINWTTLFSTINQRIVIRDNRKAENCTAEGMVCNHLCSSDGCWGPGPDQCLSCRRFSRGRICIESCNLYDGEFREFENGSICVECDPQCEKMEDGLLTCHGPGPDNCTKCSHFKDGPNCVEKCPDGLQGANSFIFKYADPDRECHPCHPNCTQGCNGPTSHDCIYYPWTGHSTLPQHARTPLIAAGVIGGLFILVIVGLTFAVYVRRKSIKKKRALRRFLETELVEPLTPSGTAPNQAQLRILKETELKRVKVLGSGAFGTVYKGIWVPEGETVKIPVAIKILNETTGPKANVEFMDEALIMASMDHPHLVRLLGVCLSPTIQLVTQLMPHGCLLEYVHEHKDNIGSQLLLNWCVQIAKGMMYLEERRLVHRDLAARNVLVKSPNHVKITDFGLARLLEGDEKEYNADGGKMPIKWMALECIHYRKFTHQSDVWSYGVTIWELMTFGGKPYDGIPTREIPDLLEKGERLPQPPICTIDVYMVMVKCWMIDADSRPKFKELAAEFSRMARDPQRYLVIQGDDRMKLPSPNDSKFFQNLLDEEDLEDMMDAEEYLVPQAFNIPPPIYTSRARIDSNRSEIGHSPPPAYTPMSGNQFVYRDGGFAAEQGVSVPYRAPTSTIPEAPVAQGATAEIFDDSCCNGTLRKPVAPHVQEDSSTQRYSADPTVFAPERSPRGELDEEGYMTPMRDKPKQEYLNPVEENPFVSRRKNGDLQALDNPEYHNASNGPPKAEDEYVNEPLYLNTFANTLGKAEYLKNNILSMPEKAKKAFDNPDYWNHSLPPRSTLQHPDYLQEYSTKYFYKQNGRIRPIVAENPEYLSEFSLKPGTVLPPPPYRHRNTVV

T5 sequence (Q99558 whole entry): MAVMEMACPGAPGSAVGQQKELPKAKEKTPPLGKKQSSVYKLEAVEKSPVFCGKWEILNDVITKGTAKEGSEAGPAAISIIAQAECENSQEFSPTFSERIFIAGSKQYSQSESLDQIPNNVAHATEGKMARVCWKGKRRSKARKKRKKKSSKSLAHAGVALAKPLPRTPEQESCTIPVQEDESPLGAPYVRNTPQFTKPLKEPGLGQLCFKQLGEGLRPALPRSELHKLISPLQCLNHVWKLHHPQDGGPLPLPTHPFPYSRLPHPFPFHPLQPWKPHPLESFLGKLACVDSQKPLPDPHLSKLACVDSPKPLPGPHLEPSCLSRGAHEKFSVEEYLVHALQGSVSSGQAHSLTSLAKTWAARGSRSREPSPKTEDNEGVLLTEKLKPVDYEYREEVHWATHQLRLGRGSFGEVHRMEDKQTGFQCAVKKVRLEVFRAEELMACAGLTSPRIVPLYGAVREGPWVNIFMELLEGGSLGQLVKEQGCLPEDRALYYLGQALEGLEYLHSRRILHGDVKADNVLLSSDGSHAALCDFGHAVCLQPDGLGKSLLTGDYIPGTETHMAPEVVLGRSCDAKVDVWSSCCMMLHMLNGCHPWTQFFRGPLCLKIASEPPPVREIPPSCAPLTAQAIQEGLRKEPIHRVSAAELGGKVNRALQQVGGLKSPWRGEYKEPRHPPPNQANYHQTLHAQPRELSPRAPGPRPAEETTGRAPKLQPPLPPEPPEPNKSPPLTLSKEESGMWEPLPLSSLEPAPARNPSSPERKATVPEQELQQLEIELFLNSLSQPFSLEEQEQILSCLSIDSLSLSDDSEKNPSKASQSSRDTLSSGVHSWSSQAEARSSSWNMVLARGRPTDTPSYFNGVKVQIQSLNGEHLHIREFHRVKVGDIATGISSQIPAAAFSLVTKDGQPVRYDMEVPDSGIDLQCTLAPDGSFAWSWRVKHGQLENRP
T4 sequence (P23443 whole entry): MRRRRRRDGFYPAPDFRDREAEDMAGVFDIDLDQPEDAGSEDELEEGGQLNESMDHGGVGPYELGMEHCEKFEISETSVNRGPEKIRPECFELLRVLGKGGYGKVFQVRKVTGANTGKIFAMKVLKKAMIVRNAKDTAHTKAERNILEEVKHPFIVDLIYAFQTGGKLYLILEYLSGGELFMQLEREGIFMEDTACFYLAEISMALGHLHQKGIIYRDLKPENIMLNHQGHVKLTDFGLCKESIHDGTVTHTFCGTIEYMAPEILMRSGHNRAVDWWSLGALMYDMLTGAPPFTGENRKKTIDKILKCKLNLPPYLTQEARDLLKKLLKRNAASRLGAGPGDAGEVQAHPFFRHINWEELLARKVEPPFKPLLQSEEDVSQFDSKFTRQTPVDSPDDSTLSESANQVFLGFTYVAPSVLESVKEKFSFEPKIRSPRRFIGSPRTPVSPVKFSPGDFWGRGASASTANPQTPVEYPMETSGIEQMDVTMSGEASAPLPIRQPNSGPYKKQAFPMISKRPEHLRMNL
T3 sequence (P00533 25-1210 T790M/L858R): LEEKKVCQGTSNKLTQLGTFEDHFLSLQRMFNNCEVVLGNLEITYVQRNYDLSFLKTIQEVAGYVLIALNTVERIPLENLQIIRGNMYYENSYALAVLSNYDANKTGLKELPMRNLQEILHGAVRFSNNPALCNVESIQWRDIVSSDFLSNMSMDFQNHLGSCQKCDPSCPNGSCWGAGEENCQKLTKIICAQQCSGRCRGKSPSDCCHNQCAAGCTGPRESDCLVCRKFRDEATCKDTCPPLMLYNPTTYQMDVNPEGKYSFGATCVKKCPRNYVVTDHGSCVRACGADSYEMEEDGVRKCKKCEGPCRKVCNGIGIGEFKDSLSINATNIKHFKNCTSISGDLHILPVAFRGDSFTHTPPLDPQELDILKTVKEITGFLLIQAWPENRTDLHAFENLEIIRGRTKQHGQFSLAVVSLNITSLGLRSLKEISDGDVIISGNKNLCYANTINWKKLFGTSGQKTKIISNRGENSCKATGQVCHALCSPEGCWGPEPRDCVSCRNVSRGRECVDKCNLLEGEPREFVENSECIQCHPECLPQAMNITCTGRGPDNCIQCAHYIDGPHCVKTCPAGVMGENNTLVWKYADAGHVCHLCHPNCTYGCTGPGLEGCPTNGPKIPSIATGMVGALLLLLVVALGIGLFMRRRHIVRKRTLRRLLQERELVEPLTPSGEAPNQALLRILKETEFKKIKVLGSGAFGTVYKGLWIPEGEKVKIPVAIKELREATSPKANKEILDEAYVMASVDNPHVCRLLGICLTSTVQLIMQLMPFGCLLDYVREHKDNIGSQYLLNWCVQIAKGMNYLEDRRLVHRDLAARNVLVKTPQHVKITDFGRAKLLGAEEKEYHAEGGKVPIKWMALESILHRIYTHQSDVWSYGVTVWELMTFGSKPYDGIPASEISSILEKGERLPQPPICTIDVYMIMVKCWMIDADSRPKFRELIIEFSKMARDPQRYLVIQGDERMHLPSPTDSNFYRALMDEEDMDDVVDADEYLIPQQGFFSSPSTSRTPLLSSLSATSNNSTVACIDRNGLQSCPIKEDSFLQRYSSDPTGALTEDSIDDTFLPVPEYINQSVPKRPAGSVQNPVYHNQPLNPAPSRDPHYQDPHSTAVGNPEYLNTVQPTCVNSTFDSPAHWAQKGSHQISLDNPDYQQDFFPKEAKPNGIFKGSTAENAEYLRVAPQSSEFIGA

Q: Which results are given for `CNc1nc(Nc2ccc(S(=O)(=O)N3CCC(N4CCOCC4)CC3)cc2OC)nc2[nH]cc(Cl)c12` [Compound 12, 5-chloro-N2-(2-methoxy-4-((4-morpholinopiperidin-1-yl)sulfonyl)phenyl)-N4-methyl-7H-pyrrolo[2,3-d]pyrimidine-2,4-diamine]?
A: remaining binding at 1 µM (panel of 468 kinases [1]): 100%; remaining binding at 1 µM (panel of 468 kinases [2]): 63%; remaining binding at 1 µM (panel of 468 kinases [3]): 66%; remaining binding at 1 µM (panel of 468 kinases [4]): 100%; remaining binding at 1 µM (panel of 468 kinases [5]): 9.2%; remaining binding at 1 µM (panel of 468 kinases [6]): 96%; remaining binding at 1 µM (panel of 468 kinases [7]): 99%

Q: Which results are given for `CNc1nc(Nc2ccc(C(=O)N3CCC(N4CCOCC4)CC3)c3c2OCO3)nc2[nH]cc(Cl)c12` [Compound 75, (7-((5-chloro-4-(methylamino)-7H-pyrrolo[2,3-d]pyrimidin-2-yl)amino)benzo[d][1,3]dioxol-4-yl)(4-morpholinopiperidin-1-yl)methanone]?
A: remaining binding at 1 µM (panel of 468 kinases [1]): 100%; remaining binding at 1 µM (panel of 468 kinases [2]): 66%; remaining binding at 1 µM (panel of 468 kinases [3]): 45%; remaining binding at 1 µM (panel of 468 kinases [4]): 63%; remaining binding at 1 µM (panel of 468 kinases [5]): 0%; remaining binding at 1 µM (panel of 468 kinases [6]): 100%; remaining binding at 1 µM (panel of 468 kinases [7]): 90%

Q: How did the remaining binding at 1 µM (panel of 468 kinases [1]) turn out when `CNc1nc(Nc2ccc(P3(=O)CCN(C4CCOCC4)CC3)cc2OC)nc2[nH]cc(Cl)c12` [Compound 77, 4-(4-((5-chloro-4-(methylamino)-7H-pyrrolo[2,3-d]pyrimidin-2-yl)amino)-3-methoxyphenyl)-1-(tetrahydro-2H-pyran-4-yl)-1,4-azaphosphinane 4-oxide] was run?
A: 100%

Q: And the remaining binding at 1 µM (panel of 468 kinases [2])?
A: 39%

Q: And the remaining binding at 1 µM (panel of 468 kinases [3])?
A: 42%

Q: And the remaining binding at 1 µM (panel of 468 kinases [4])?
A: 98%

Q: And the remaining binding at 1 µM (panel of 468 kinases [5])?
A: 16%

Q: And the remaining binding at 1 µM (panel of 468 kinases [6])?
A: 100%

Q: And the remaining binding at 1 µM (panel of 468 kinases [7])?
A: 88%
